Assay results as given in PMC11507441, “Oilseed Cakes: A Promising Source of Antioxidant, and Anti-Inflammatory Agents—Insights from Lactuca sativa” (International Journal of Molecular Sciences, 2024).
≈ marks a conversion by molar mass, not a printed value. Like-named read-outs stand apart in the source and are kept apart here.

Columns and labels:
E. coli = experiment: Antimicrobial screening, zone of inhibition; assay type: cell-based; conditions: for zone of inhibition at 1000 µg/mL: Escherichia coli, isolated compounds 1 mg/mL, read-out: E. coli Diameter of Inhibition Zone (mm); for E. coli %Activity Index: 1 mg/mL
Procedure: (§1) The procedure was performed according to […] et al.. A comparison of the extract's zone of inhibition to that of a reference antibiotic's activity index was determined using the following equation:Activity index = (the inhibition zone of extract/the inhibition zone of the standard) × 100

P. aeruginosa = experiment: Antimicrobial screening, zone of inhibition; assay type: cell-based; conditions: Table 1; for zone of inhibition at 1000 µg/mL: Pseudomonas aeruginosa, isolated compounds 1 mg/mL, read-out: P. aeruginosa Diameter of Inhibition Zone (mm); for P. aeruginosa %Activity Index: 1 mg/mL, relative to ciprofloxacin
Procedure: The procedure was performed according to Stylianakis et al.. A comparison of the extract’s zone of inhibition to that of a reference antibiotic’s activity index was determined using the following equation:Activity index = (the inhibition zone of extract/the inhibition zone of the standard) × 100

C. albicans = experiment: Antimicrobial screening, zone of inhibition; assay type: cell-based; conditions: for zone of inhibition at 1000 µg/mL: Candida albicans, isolated compounds 1 mg/mL, read-out: C. Albicans Diameter of Inhibition Zone (mm); for C. Albicans %Activity Index: 1 mg/mL
Procedure: as §1

ABTS antioxidant assay = assay type: biochemical; set-up: IC50 in ABTS assay: unit not given beside the values; conditions: for IC50 in ABTS assay: unit not given
Procedure: The experiment was performed in triplicate according to Zaky et al.. The absorbance of control of the resulting green-blue solution (ABTS* radical solution) was recorded at λ max 734 nm.

[1] = Cytotoxic activity (MTT assay), normal cells; assay type: cell-based; conditions: human
Procedure: (§2) The HPLC was performed in the Institute for Plant Biology, TU Braunschweig, using a Young Lin quaternary pump, vacuum degasser, column oven (40 °C), diode array detector (YL9160 PDA), and a Midas Spark Holland autosampler. UV spectra (λ max) were measured in the central laboratory of the Faculty of Pharmaceutical Science at Mansoura University using spectroscopic methanol with an ultraviolet-visible spectrophotometer (Shimadzu 1601 PC, version TCC-240A, Kyoto, Japan). The NMR unit of Mansoura University’s Faculty of Pharmacy obtained nuclear magnetic resonance spectra (^1H-NMR, ^13C-NMR, DEPT-Q, APT, HSQC, and HMBC) using a Bruker DRX 600 NMR spectrometer (600 and 150 MHz for ^1H and ^13C-NMR, respectively) and with the Bruker Corporation Avance III 400 spectrometer, which measures ^1H and ^13C-NMR at 400 and 100 MHz, respectively. The types of solvents that are used are CDCl3, CD3OD, and DMSO-d6. For normal phase chromatography, silica gel G 60–230 mesh (Merck, Darmstadt, Germany) was packed using a wet or dry method in the specified solvent. The purchase of Normal Human lung fibroblast (WI-38), hepatic cancer cell lines (HePG-2), and mammary gland (MCF-7) cell lines from ATCC was made possible by the Holding firm for biological goods and vaccines (VACSERA), which is based in Cairo, Egypt.
(§3) Using the MTT test, the inhibitory effects of substances on cell growth were ascertained using the cell lines compared to normal lung fibroblast cells (WI-38). The selectivity index was calculated via the Selectivity index (SI) equation: SI equals IC50 normal/IC50 cancer.

MCF-7 cancer cell line = experiment: Cytotoxic activity (MTT assay); assay type: cell-based; conditions: for IC50: Homo sapiens; for Selectivity Index MCF-7: IC50 normal (WI-38)/IC50 cancer
Procedure: as §2, §3

HepG-2 cancer cell line = experiment: Cytotoxic activity (MTT assay); assay type: cell-based; conditions: for IC50: Homo sapiens; for Selectivity Index HepG2: IC50 normal (WI-38)/IC50 cancer
Procedure: as §2, §3

S. aureus = experiment: Antimicrobial screening, zone of inhibition; assay type: cell-based; conditions: for zone of inhibition at 1000 µg/mL: Staphylococcus aureus, isolated compounds 1 mg/mL, read-out: S. aureus Diameter of Inhibition Zone (mm); for S. aureus %Activity Index: 1 mg/mL
Procedure: as §1

[2] = Table 1, relative to clotrimazole
[3] = Table S1, extracts and fractions 1 mg/mL
[4] = MCF7, read-out: In Vitro Cytotoxicity IC50 (µg/mL) MCF-7
[5] = HepG2, read-out: In Vitro Cytotoxicity IC50 (µg/mL) HepG-2
[6] = Table 1, relative to ciprofloxacin
[7] = Table S1, relative to ampicillin standard

Compound	zone of inhibition at 1000 µg/mL (E. coli; Table 1)	zone of inhibition at 1000 µg/mL (P. aeruginosa)	zone of inhibition at 1000 µg/mL (C. albicans; Table 1)	C. Albicans %Activity Index (C. albicans; [2])	IC50 (MCF-7 cancer cell line; [4])	Selectivity Index MCF-7 (MCF-7 cancer cell line)	IC50 (HepG-2 cancer cell line; [5])	Selectivity Index HepG2 (HepG-2 cancer cell line)	zone of inhibition at 1000 µg/mL (S. aureus; Table 1)	S. aureus %Activity Index (S. aureus; [6])	E. coli %Activity Index (E. coli; [6])	P. aeruginosa %Activity Index (P. aeruginosa)	further results
O=C(O)c1cn(C2CC2)c2cc(N3CCNCC3)c(F)cc2c1=O [Ciprofloxacin, ciprofloxacin, reference compound]	26 ± 0.3 mm	22.87 ± 0.15 mm											
Clc1ccccc1C(c1ccccc1)(c1ccccc1)n1ccnc1 [Clotrimazole, clotrimazole, reference compound]			26.9 ± 0.1 mm	100%									C. Albicans %Activity Index (C. albicans; Table S1, relative to clotrimazole standard): 100%; C. Albicans Diameter of inhibition zone (mm) (C. albicans; [3]): 25.9±0.1 mm
O=C1O[C@H]([C@@H](O)CO)C(O)=C1O [Ascorbic acid]													IC50 in ABTS assay (ABTS antioxidant assay; fractions of lettuce seedcake extract): 29.47 ± 0.17; % inhibition in ABTS assay (ABTS antioxidant assay; seed cakes' methanolic extract at 1 mg/mL): 88.1%
O=c1cc(-c2ccc(O)c(O)c2)oc2cc(O[C@@H]3O[C@H](CO)[C@@H](O)[C@H](O)[C@H]3O)cc(O)c12 [Compound 3, luteolin 7-O-β-D-glucoside]	8.8 ± 0.15 mm	11.8 ± 0.25 mm	9.87 ± 0.15 mm	36.7%	17.8 ± 1.3 µg/mL (≈ 39.7 µM)	2.8	24.8 ± 1.9 µg/mL (≈ 55.4 µM)	2	14.8 ± 0.15 mm	61.9%	33.8%	51.5%	IC50 [1]: 49.6 ± 2.7 µg/mL (≈ 111 µM)
CCC(CC[C@@H](C)C1CCC2C3CC=C4C[C@@H](O[C@@H]5O[C@H](CO)[C@@H](O)[C@H](O)[C@H]5O)CC[C@]4(C)C3CC[C@@]21C)C(C)C (stereo partly drawn) [Compound 5, β-sitosterol 3-O-β-D-glucoside]	5.1 ± 0.1 mm	7.9 ± 0.1 mm	4.9 ± 0.1 mm	18.2%		0.66		0.54	10.8 ± 0.2 mm	49.6%	19.6%	34.5%	IC50 ([1]; WI-38 normal lung fibroblast cells, MTT, normal cells, read-out: In Vitro Cytotoxicity IC50 (µg/mL) WI-38): 34.8 ± 2.1 µg/mL (≈ 60.3 µM); IC50 (MCF-7 cancer cell line; MCF7, MTT, read-out: In Vitro Cytotoxicity IC50 (µg/mL) MCF-7): 52.8 ± 2.9 µg/mL (≈ 91.5 µM); IC50 (HepG-2 cancer cell line; HepG2, MTT, read-out: In Vitro Cytotoxicity IC50 (µg/mL) HepG-2): 63.6 ± 3.4 µg/mL (≈ 110 µM)
CC1(C)S[C@@H]2[C@H](NC(=O)[C@H](N)c3ccccc3)C(=O)N2[C@H]1C(=O)O [Ampicillin, ampicillin, reference compound]													S. aureus %Activity Index (S. aureus; [7]): 100%; S. aureus Diameter of inhibition zone (mm) (S. aureus; [3]): 22.87±0.15 mm; E. coli %Activity Index (E. coli; [7]): 100%; E. coli Diameter of inhibition zone (mm) (E. coli; [3]): 23.9 ± 0.15 mm
O=c1cc(-c2ccc(O)c(O)c2)oc2cc(O)cc(O)c12 [Compound 2, luteolin]	9.8 ± 0.2 mm	12.9 ± 0.1 mm	10.7 ± 0.15 mm	40.5%	11.6 ± 0.9 µg/mL (≈ 40.6 µM)	5.1	19.5 ± 1.3 µg/mL (≈ 68.1 µM)	3	17 ± 0.1 mm	71.7%	37.8%	56.6%	IC50 [1]: 59.3 ± 3.2 µg/mL (≈ 207 µM)
COc1cccc2c1C(=O)c1c(O)c3c(c(O)c1C2=O)C[C@@](O)(C(=O)CO)C[C@@H]3O[C@H]1C[C@H](N)[C@H](O)[C@H](C)O1 [Doxorubicin, doxorubicin, reference compound]							4.5 ± 0.2 µg/mL (≈ 8.28 µM)						
O=c1cc(-c2ccc(O)cc2)oc2cc(O[C@@H]3O[C@H](CO)[C@@H](O)[C@H](O)[C@H]3O)cc(O)c12 [Compound 4, apigenin 7-O-β-D-glucoside]	6.8 ± 0.15 mm	9.8 ± 0.15 mm	5.95 ± 0.07 mm	22.1%	39.8 ± 2.2 µg/mL (≈ 92 µM)	2.1	43.4 ± 2.5 µg/mL (≈ 100 µM)	1.9	11.9 ± 0.15 mm	50%	26.1%	42.8%	IC50 in ABTS assay (ABTS antioxidant assay; isolated compounds from lettuce seedcake): 51.27 ± 0.25; IC50 ([1]; MTT, normal cells, read-out: In Vitro Cytotoxicity IC50 (µg/mL) WI-38): 84.3 ± 4.3 µg/mL (≈ 195 µM)
